Reference: ChEMBL document CHEMBL1152207, “Leucettamol A: a new inhibitor of Ubc13-Uev1A interaction isolated from a marine sponge, Leucetta aff. microrhaphis” (Bioorg Med Chem Lett, 2008)
pIC50: −log10 of the molar value. The source made the active and inactive calls. No cut-off for these calls is given here.

Key:
[1] = molecular target: Ubiquitin-conjugating enzyme E2 N/Ubiquitin-conjugating enzyme E2 variant 1 (Homo sapiens) (UniProt Q13404+P61088); experiment: (§1) Inhibition of human Ubc13-Uev1A interaction expressed in Escherichia BL21 after 15 mins by ELISA
[2] = molecular target: Ubiquitin-conjugating enzyme E2 N/Ubiquitin-conjugating enzyme E2 variant 1 (Homo sapiens, UniProt P61088+Q13404); experiment: as §1
[3] = molecular target: T1, Ubiquitin-conjugating enzyme E2 N (Homo sapiens) (UniProt P61088); experiment: Inhibition of Ubc13-[…] interaction by ELISA
T1 sequence (whole entry): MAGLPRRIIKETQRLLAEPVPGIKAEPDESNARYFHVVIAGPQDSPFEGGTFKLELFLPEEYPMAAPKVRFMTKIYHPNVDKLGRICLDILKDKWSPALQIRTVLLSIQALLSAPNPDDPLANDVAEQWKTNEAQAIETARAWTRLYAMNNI

Activity [1]	pIC50 [2]	Activity [3]	Compound
inactive	–	–	CC(=O)N[C@H](C)[C@H](C/C=C\C/C=C\C/C=C\C/C=C\C/C=C\C/C=C\CCCCCC[C@H](OC(C)=O)[C@@H](C)NC(C)=O)OC(C)=O
–	5.08	–	C[C@@H](N)[C@@H](O)CCCCCCCCCCCCCCCCCCCCCCCC[C@H](O)[C@@H](C)N
–	3.98	inactive	C[C@@H](N)[C@@H](O)C/C=C\C/C=C\C/C=C\C/C=C\C/C=C\C/C=C\CCCCCC[C@H](O)[C@@H](C)N [LEUCETTAMOL A]
